{"source": "patent US12180170B1", "about": "“2-(5-(3-fluorophenyl)-4-phenyl-4H-1,2,4-triazol-3-ylthio)acetic acid as an antimicrobial compound” (KING FAISAL UNIVERSITY, priority 2023, dated 2024)", "format_in_all_cases": "cell-based", "key": {"[1]": {"system": "Bacillus cereus", "experiment": "Agar plate disc-diffusion, antibacterial inhibition zone", "conditions": "nutrient agar, 37° C., 48 h, DMSO control zone subtracted", "protocol": "(§1) The agar plate disc-diffusion method was applied. […] The discs were then placed onto the surface of agar plates (nutrient agar for bacteria and Sabouraud's dextrose agar for fungi) seeded with the test organism. Each plate contained 15 mL of the agar medium, previously seeded with 0.2 mL of the broth culture of each organism pregrown for 18 h. The plates were incubated at 37° C. for 48 h, and 72 h for fungi. The inhibition zones was measured in mm. Discs impregnated with DMSO were used as a control, and its inhibition zone was subtracted from the tested compound actual inhibition zone."}, "[2]": {"system": "Escherichia coli", "experiment": "Agar plate disc-diffusion, antibacterial inhibition zone", "conditions": "nutrient agar, 37° C., 48 h, DMSO control zone subtracted", "protocol": "as §1"}, "[3]": {"system": "Pseudomonas aeruginosa", "experiment": "Agar plate disc-diffusion, antibacterial inhibition zone", "conditions": "nutrient agar, 37° C., 48 h, DMSO control zone subtracted", "protocol": "as §1"}, "[4]": {"system": "Staphylococcus aureus", "experiment": "Agar plate disc-diffusion, antibacterial inhibition zone", "conditions": "nutrient agar, 37° C., 48 h, DMSO control zone subtracted", "protocol": "as §1"}, "[5]": {"system": "Aspergillus flavus", "experiment": "Agar plate disc-diffusion, antifungal inhibition zone", "conditions": "Sabouraud's dextrose agar, 37° C., 72 h, DMSO control zone subtracted", "protocol": "as §1"}, "[6]": {"system": "Chrysosporium keratinophilum", "experiment": "Agar plate disc-diffusion, antifungal inhibition zone", "conditions": "Sabouraud's dextrose agar, 37° C., 72 h, DMSO control zone subtracted", "protocol": "as §1"}, "[7]": {"conditions": "A = concentration of comp. = 10,000 μL"}, "[8]": {"conditions": "B = concentration of comp. = 30,000 μL"}, "[9]": {"conditions": "C = concentration of comp. = 50,000 μL"}}}
{"smiles": "O=C(O)CSc1nnc(-c2cccc(F)c2)n1-c1ccccc1", "note": "[III, 2-(5-(3-fluorophenyl)-4-phenyl-4H-1,2,4-triazol-3-ylthio)acetic acid]", "values": [{"measurement": "inhibition zone, Bacillus Cereus, A", "setting": "[1]; [7]", "value": 23, "unit": "mm"}, {"measurement": "inhibition zone, Bacillus Cereus, B", "setting": "[1]; [8]", "value": 27, "unit": "mm"}, {"measurement": "inhibition zone, Bacillus Cereus, C", "setting": "[1]; [9]", "value": 40, "unit": "mm"}, {"measurement": "inhibition zone, Escherichia coli, A", "setting": "[2]; A =", "value": 22, "unit": "mm"}, {"measurement": "inhibition zone, Escherichia coli, B", "setting": "[2]; [8]", "value": 30, "unit": "mm"}, {"measurement": "inhibition zone, Escherichia coli, C", "setting": "[2]; [9]", "value": 49, "unit": "mm"}, {"measurement": "inhibition zone, Pseudomonas aeruginosa, A", "setting": "[3]; [7]", "value": 25, "unit": "mm"}, {"measurement": "inhibition zone, Pseudomonas aeruginosa, B", "setting": "[3]; [8]", "value": 27, "unit": "mm"}, {"measurement": "inhibition zone, Pseudomonas aeruginosa, C", "setting": "[3]; [9]", "value": 46, "unit": "mm"}, {"measurement": "inhibition zone, Staphylococcus aureus, A", "setting": "[4]; [7]", "value": 15, "unit": "mm"}, {"measurement": "inhibition zone, Staphylococcus aureus, B", "setting": "[4]; [8]", "value": 20, "unit": "mm"}, {"measurement": "inhibition zone, Staphylococcus aureus, C", "setting": "[4]; [9]", "value": 24, "unit": "mm"}, {"measurement": "inhibition zone, Aspergillus flavus, A", "setting": "[5]; [7]", "value": 20, "unit": "mm"}, {"measurement": "inhibition zone, Aspergillus flavus, B", "setting": "[5]; [8]", "value": 27, "unit": "mm"}, {"measurement": "inhibition zone, Aspergillus flavus, C", "setting": "[5]; [9]", "value": 36, "unit": "mm"}, {"measurement": "inhibition zone, Chrysosporium keratinophilum, A", "setting": "[6]; [7]", "value": 24, "unit": "mm"}, {"measurement": "inhibition zone, Chrysosporium keratinophilum, B", "setting": "[6]; [8]", "value": 27, "unit": "mm"}, {"measurement": "inhibition zone, Chrysosporium keratinophilum, C", "setting": "[6]; [9]", "value": 44, "unit": "mm"}]}
